Here are results for 4 compounds from ChEMBL document CHEMBL3860047, “Modulating the strength of hydrogen bond acceptors to achieve low Caco2 efflux for oral bioavailability of PARP inhibitors blocking centrosome clustering” (Bioorg Med Chem Lett, 2016).

Molecules are shown by their SMILES.

A word on the pKa: it is the pH at which an ionisable group is half protonated. A higher pKa goes with a weaker acid or stronger base.

This series can be described thus: Dissociation constant, pKa of the compound. Type of series: physicochemical.
Regarding `NCc1ccccc1` [BENZYLAMINE], the pKa stood at 9.6. With `CN(C)C(=O)c1ccccc1`, the pKa turned out to be 1.2. Next, `C[S+](C)[O-]` [DIMETHYL SULFOXIDE]: 1.54. In turn, `c1ccnnc1` [PYRIDAZINE] displayed a pKa of 2.24.
